Measurements: ChEMBL document CHEMBL1201862, “PubChem BioAssay data set” (2004)
Blank lines part the entries; values can stand above or below the compound they belong to. Calls of active or inactive are those of the source.

Key:
Melanocortin receptor 4 = Melanocortin receptor 4 (Homo sapiens, UniProt P32245); experiment: inhibitors of MC4R cAMP signaling – cell-based, TR-FRET, biased antagonists, dose response (AID 602298); type: functional;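 also: antagonist potency against agonist-stimulated cAMP production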
[1] = cAMP pathway inhibition in counterscreen cell line – TR-FRET cAMP detection, counter-screen for MC4R biased antagonist project, dose response (AID 602305); type: functional, cell-based;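 also: U2OS cells stimulated with forskolin near its EC80 as the cAMP inducer; potency is for inhibition of forskolin-stimulated cAMP signaling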
[2] = molecular target: Protein disulfide-isomerase (Homo sapiens, UniProt P07237); experiment: inhibition of PDI-driven insulin aggregation – biochemical, turbidity, absorbance, cherry-picked samples, dose response (AID 602350); type: functional
[3] = molecular target: Melanin-concentrating hormone receptor 1 (Homo sapiens, UniProt Q99705); experiment: Late-stage fluorescence-based counterscreen for antagonists of the G-protein coupled receptor 7 (GPR7): cell-based dose response assay to identify antagonists of the melanin-concentrating hormone receptor 1 (MCHR1). [Related pubchem assays (depositor defined):AID1861, AID1880, AID1952, AID2148, AID2251, AID2257, AID485339]; type: functional;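 also: stimulated with 30 nM MCH peptide agonist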
[4] = Late-stage luminescence-based cell-based dose response assay to identify antagonists of the G-protein coupled receptor 7 (GPR7): Cytotoxicity assay. [Related pubchem assays (depositor defined):AID1861, AID1880, AID1952, AID2148, AID2251, AID2257, AID485339]; type: functional
[5] = Late-stage results from the probe development effort to identify antagonists of the G-protein coupled receptor 7 (GPR7): luminescence-based cell-based dose response counterscreen assay to determine cytotoxicity of antagonist compounds Set 2.; type: functional
[6] = molecular target: Protein kinase C theta type (Homo sapiens, UniProt Q04759); experiment: Navigating the Kinome. Panel member name: PRKCQ; type: functional
[7] = molecular target: Proto-oncogene tyrosine-protein kinase receptor Ret (Homo sapiens, UniProt P07949); type: functional;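 also: measured within a kinome-wide profiling panel, RET as the panel member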
[8] = molecular target: Death-associated protein kinase 3 (Homo sapiens, UniProt O43293); type: functional;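 also: measured as one member of a kinome-wide profiling panel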
Aurora kinase A = Aurora kinase A (Homo sapiens, UniProt O14965); type: functional;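 also: value from the Navigating the Kinome kinase panel profiling, panel entry STK6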
[9] = molecular target: Glycogen synthase kinase-3 alpha (Homo sapiens, UniProt P49840); type: functional;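 also: GSK3A result taken from a broad kinome-wide kinase panel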
Activated CDC42 kinase 1 = Activated CDC42 kinase 1 (Homo sapiens, UniProt Q07912); experiment: Navigating the Kinome. Panel member name: ACK1; type: functional
[10] = molecular target: Vascular endothelial growth factor receptor 2 (Homo sapiens, UniProt P35968); type: functional
[11] = molecular target: Cyclin-dependent kinase 5 (Homo sapiens, UniProt Q00535); type: functional;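 also: CDK5 measured as one member of a kinase profiling panel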
[12] = molecular target: Dual specificity tyrosine-phosphorylation-regulated kinase 1B (Homo sapiens, UniProt Q9Y463); experiment: Navigating the Kinome. Panel member name: DYRK1B; type: functional
Focal adhesion kinase 1 = Focal adhesion kinase 1 (Homo sapiens, UniProt Q05397); type: functional;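 also: measured as one member of a kinome panel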
[13] = molecular target: Cyclin-dependent kinase 19 (Homo sapiens, UniProt Q9BWU1); experiment: Navigating the Kinome. Panel member name: CDC2L6; type: functional
[14] = molecular target: Cyclin-dependent kinase 8 (Homo sapiens, UniProt P49336); experiment: Navigating the Kinome. Panel member name: CDK8; type: functional
[15] = molecular target: Glycogen synthase kinase-3 beta (Homo sapiens, UniProt P49841); type: functional;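 also: value comes from a broad kinome profiling panel, with GSK3B as the panel member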
[16] = molecular target: Cyclin-dependent kinase 9 (Homo sapiens, UniProt P50750); type: functional;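 also: value from the CDK9 entry of a kinome-spanning kinase panel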
[17] = molecular target: cAMP-dependent protein kinase catalytic subunit alpha (Homo sapiens, UniProt P17612); type: functional
[18] = molecular target: Dual specificity protein kinase CLK4 (Homo sapiens, UniProt Q9HAZ1); type: functional
[19] = molecular target: Macrophage colony-stimulating factor 1 receptor (Homo sapiens, UniProt P07333); type: functional;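 also: value comes from the Navigating the Kinome screening panel, CSF1R member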
[20] = molecular target: Dual specificity tyrosine-phosphorylation-regulated kinase 1A (Homo sapiens, UniProt Q13627); type: functional;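 also: measured against DYRK1A as one member of a broad kinome profiling panel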
[21] = molecular target: Cyclin-dependent kinase 2 (Homo sapiens, UniProt P24941); type: functional;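 also: CDK2 measured as one member of a broad kinome profiling panel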
[22] = molecular target: Serine/threonine-protein kinase pim-1 (Homo sapiens, UniProt P11309); type: functional
[23] = molecular target: Cell division cycle 7-related protein kinase (Homo sapiens, UniProt O00311); type: functional;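 also: value obtained from a kinome-wide kinase panel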
[24] = molecular target: Homeodomain-interacting protein kinase 2 (Homo sapiens, UniProt Q9H2X6); type: functional;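 also: measured within a kinome-wide kinase profiling panel, HIPK2 being one panel member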
[25] = molecular target: MAP kinase-interacting serine/threonine-protein kinase 2 (Homo sapiens, UniProt Q9HBH9); type: functional
[26] = molecular target: Interleukin-1 receptor-associated kinase 4 (Homo sapiens, UniProt Q9NWZ3); type: functional
[27] = molecular target: Mitogen-activated protein kinase kinase kinase kinase 4 (Homo sapiens, UniProt O95819); type: functional
[28] = molecular target: DNA dC->dU-editing enzyme APOBEC-3A (Homo sapiens, UniProt P31941); experiment: SAR analysis of small molecule inhibitors of APOBEC3A DNA Deaminase via a fluorescence-based single-stranded DNA deaminase assay - Set 2.; type: functional; conditions: read-out: IC50_Mean
[29] = molecular target: DNA dC->dU-editing enzyme APOBEC-3G (Homo sapiens, UniProt Q9HC16); experiment: SAR analysis of small molecule inhibitors of APOBEC3G DNA Deaminase via a fluorescence-based single-stranded DNA deaminase assay - Set 2.; type: functional; conditions: read-out: IC50_Mean
[30] = molecular target: Sphingosine 1-phosphate receptor 1 (Homo sapiens, UniProt P21453); experiment: Late-stage fluorescence-based dose-response cell-based counterscreen assay to identify agonists of the Sphingosine 1-Phosphate Receptor 4 (S1P4): Sphingosine 1-Phosphate Receptor 1 (S1P1) agonist assay Set 2.; type: functional
[31] = molecular target: Sphingosine 1-phosphate receptor 5 (Homo sapiens, UniProt Q9H228); experiment: activation of human S1P5 receptor – cell-based, fluorescence, set 2, counter-screen for S1P4 agonist project, late-stage follow-up (AID 504867); type: functional
[32] = molecular target: Sphingosine 1-phosphate receptor 3 (Homo sapiens, UniProt Q99500); experiment: Late-stage fluorescence-based dose-response cell-based counterscreen assay to identify agonists of the Sphingosine 1-Phosphate Receptor 4 (S1P4): Sphingosine 1-Phosphate Receptor 3 (S1P3) agonist assay Set 2.; type: functional
[33] = molecular target: Sphingosine 1-phosphate receptor 2 (Homo sapiens, UniProt O95136); experiment: activation of human S1P2 receptor – cell-based, fluorescence, set 2, counter-screen for S1P4 agonist project, late-stage follow-up (AID 504873); type: functional
[34] = SAR analysis of small molecule activators of Apaf-1 using a LZ-Caspase-9/Caspase-3 Fluorescent Selectivity assay - Set 2.; type: functional; conditions: read-out: EC50_Mean
[35] = molecular target: T1, Apoptotic protease-activating factor 1 (Homo sapiens, UniProt O14727); experiment: SAR analysis of small molecule Activators of Apaf-1 in a Fluorescent assay - set 2.; type: functional; conditions: read-out: EC50_Mean
T1 sequence (O14727 whole entry): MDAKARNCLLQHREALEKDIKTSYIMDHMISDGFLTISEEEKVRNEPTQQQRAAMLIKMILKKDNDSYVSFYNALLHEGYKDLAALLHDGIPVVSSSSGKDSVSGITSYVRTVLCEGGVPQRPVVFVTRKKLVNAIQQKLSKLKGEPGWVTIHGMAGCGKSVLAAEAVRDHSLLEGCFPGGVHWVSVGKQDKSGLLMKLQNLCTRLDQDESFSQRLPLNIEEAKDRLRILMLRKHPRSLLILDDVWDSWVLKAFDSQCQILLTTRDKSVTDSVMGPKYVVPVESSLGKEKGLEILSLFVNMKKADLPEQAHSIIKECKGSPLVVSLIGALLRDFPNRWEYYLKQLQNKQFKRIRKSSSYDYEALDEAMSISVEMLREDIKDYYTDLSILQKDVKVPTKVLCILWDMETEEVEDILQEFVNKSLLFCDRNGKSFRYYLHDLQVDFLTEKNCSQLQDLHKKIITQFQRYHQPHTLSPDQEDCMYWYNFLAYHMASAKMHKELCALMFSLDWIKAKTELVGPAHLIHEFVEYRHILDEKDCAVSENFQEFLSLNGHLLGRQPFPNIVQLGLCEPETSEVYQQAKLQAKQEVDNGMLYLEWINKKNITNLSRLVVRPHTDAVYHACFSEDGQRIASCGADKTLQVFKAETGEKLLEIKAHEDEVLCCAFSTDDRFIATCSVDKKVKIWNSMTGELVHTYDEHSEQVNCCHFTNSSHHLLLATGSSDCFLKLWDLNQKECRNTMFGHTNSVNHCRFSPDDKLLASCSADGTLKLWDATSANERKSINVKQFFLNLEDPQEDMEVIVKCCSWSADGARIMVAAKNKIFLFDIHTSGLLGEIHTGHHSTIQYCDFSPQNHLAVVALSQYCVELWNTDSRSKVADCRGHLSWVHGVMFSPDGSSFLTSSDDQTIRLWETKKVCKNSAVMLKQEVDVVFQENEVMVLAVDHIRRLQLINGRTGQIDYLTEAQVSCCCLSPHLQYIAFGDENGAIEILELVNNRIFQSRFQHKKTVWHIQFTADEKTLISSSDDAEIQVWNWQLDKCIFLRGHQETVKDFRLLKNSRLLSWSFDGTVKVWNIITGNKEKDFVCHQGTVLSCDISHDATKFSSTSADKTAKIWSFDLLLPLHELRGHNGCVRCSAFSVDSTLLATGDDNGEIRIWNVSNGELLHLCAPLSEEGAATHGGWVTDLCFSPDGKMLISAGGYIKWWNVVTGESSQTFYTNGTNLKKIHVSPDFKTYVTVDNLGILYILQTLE

Dual specificity protein kinase CLK4, sequence (Q9HAZ1 whole entry): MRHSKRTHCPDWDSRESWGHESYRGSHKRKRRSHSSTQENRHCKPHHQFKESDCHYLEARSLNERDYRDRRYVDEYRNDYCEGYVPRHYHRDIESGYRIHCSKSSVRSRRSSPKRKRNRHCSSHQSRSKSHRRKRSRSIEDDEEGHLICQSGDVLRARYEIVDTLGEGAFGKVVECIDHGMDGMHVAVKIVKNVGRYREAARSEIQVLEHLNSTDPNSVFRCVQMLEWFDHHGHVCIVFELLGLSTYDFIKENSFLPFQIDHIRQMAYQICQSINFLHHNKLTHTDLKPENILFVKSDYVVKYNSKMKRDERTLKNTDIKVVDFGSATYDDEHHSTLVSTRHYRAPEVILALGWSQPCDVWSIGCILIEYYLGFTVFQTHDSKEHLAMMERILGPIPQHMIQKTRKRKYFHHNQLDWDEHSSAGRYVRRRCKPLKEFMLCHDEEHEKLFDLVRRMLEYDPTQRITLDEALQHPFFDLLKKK
Glycogen synthase kinase-3 beta, sequence (P49841 whole entry): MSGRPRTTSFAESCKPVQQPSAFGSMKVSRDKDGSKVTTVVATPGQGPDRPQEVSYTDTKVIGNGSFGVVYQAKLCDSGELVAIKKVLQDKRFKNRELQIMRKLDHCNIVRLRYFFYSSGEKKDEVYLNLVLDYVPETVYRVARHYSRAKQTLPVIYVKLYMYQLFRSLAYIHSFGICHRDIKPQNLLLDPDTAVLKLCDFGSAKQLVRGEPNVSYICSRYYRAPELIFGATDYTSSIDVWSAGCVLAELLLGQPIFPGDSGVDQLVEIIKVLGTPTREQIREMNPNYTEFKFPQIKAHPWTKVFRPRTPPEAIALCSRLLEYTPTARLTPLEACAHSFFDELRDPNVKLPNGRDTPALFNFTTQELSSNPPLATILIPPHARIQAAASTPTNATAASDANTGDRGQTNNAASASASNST
Vascular endothelial growth factor receptor 2, sequence (P35968 whole entry): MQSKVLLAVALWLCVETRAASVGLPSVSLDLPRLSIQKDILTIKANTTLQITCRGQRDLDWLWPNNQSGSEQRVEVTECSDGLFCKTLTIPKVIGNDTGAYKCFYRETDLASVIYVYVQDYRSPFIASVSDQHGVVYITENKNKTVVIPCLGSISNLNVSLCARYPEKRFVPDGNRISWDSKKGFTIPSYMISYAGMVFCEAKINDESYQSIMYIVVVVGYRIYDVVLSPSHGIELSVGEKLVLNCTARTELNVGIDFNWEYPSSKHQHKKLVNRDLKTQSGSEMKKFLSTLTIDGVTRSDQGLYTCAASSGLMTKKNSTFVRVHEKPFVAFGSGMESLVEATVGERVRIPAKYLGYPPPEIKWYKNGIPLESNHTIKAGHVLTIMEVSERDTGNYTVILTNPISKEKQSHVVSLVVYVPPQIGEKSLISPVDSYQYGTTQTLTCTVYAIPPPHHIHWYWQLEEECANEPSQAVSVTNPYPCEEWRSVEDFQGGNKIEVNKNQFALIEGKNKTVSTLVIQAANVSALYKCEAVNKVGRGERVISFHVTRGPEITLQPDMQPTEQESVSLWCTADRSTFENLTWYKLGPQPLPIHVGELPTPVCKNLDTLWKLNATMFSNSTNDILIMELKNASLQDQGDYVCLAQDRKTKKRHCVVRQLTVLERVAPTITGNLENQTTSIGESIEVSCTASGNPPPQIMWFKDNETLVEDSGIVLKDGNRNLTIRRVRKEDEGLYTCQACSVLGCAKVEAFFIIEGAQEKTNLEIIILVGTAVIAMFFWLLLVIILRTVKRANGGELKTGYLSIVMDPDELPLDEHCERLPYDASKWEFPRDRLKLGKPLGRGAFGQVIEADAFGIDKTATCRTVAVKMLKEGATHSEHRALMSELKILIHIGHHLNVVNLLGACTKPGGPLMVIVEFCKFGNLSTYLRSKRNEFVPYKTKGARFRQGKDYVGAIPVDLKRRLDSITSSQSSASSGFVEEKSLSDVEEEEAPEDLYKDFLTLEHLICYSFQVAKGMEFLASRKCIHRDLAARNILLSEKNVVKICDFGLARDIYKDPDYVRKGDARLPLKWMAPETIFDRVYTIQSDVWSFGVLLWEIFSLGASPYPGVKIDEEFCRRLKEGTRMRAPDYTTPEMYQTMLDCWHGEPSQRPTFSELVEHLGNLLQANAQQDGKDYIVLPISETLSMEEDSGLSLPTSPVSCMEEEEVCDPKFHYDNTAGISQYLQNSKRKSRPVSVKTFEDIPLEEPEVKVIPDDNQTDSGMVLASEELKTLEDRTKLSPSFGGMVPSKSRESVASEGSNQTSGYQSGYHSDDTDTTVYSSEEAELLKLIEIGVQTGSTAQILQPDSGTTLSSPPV
Homeodomain-interacting protein kinase 2, sequence (Q9H2X6 whole entry): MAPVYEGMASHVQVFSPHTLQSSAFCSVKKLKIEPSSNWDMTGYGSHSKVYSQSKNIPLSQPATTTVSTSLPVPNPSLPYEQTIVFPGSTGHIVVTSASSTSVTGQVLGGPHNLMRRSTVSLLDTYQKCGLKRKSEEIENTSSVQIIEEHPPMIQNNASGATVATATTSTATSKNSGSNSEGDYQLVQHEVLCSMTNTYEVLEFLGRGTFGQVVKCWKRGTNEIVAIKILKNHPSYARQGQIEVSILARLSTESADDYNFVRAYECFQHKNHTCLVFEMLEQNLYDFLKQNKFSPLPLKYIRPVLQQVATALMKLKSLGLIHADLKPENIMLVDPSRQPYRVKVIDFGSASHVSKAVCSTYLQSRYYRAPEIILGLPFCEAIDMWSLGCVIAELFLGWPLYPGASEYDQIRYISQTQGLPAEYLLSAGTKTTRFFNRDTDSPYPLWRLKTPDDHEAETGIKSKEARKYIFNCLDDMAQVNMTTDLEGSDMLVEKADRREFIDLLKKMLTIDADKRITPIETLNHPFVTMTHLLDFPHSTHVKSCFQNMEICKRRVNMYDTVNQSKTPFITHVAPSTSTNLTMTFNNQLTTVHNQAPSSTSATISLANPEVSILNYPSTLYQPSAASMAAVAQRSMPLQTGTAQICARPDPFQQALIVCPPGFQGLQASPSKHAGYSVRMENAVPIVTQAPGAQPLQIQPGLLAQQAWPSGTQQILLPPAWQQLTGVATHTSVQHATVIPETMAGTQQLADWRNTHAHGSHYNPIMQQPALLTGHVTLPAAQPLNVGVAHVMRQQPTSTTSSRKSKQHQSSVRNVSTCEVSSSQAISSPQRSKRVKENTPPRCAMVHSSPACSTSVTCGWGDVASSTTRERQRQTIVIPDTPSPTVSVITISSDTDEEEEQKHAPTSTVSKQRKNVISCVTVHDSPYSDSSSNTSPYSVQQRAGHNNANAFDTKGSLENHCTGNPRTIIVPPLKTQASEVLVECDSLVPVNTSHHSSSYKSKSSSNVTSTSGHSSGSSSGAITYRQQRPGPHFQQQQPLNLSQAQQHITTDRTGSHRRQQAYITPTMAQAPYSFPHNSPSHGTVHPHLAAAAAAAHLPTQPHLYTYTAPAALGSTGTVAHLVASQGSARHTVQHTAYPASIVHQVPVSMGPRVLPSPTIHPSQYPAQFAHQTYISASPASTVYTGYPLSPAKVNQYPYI
Sphingosine 1-phosphate receptor 3, sequence (Q99500 whole entry): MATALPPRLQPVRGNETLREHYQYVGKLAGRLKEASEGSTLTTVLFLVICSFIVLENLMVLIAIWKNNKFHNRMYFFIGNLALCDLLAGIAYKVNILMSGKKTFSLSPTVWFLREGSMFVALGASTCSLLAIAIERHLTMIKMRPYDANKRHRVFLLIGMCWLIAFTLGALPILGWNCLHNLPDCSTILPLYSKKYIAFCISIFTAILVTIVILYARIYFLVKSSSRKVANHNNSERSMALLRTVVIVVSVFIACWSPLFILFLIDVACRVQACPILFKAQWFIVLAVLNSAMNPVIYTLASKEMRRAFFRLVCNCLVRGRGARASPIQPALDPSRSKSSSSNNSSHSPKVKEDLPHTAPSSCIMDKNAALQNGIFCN
Protein disulfide-isomerase, sequence (P07237 whole entry): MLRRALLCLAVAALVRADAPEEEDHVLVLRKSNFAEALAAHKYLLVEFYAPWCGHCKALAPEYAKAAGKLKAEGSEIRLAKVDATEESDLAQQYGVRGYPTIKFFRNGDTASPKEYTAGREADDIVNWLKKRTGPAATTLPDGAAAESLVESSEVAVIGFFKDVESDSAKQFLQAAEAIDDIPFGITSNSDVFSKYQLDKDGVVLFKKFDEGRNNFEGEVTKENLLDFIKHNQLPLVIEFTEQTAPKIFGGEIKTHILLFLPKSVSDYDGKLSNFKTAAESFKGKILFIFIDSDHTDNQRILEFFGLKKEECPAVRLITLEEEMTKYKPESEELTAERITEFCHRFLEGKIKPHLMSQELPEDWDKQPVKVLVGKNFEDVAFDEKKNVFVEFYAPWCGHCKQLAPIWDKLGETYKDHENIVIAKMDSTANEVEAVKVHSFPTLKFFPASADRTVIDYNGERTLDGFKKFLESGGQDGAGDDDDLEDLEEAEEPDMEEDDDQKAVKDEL
MAP kinase-interacting serine/threonine-protein kinase 2, sequence (Q9HBH9 whole entry): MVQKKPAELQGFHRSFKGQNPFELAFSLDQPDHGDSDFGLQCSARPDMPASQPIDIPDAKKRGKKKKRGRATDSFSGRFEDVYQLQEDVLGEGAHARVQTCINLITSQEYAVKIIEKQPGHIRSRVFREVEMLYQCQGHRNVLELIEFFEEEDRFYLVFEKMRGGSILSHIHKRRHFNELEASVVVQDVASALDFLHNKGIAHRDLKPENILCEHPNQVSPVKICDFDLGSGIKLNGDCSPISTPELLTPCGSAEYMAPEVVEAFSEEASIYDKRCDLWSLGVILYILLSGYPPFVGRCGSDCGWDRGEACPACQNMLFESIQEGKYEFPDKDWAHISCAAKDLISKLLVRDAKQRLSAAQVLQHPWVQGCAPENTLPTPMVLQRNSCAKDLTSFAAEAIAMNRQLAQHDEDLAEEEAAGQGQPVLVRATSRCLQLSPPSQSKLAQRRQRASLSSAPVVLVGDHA
DNA dC->dU-editing enzyme APOBEC-3A, sequence (P31941 whole entry): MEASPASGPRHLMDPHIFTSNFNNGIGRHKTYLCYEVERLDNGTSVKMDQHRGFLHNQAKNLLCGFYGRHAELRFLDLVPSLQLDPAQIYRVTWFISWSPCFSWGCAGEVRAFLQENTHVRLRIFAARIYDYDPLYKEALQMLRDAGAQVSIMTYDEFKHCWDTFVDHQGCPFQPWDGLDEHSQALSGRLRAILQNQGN

SMILES: O=C(Nc1ccccc1)OC1CCC2CC1CCC2OC(=O)Nc1ccccc1 (configuration not stated)
- IC50 (Melanocortin receptor 4): 7.46 µM (active)
- IC50 [1]: > 64.6 µM (inactive)

SMILES: COc1ccc(Oc2c(Cl)cnn(-c3cc(C)cc(C)c3)c2=O)cc1
- IC50 [3]: 3.9 µM (active)
- CC50 [4]: > 20 µM (inactive)
- CC50 [5]: > 20 µM (inactive)

SMILES: O=C(O)c1cc2nccc(-c3cccs3)n2n1
- IC50 [28]: > 99 µM (inactive)
- IC50 [29]: > 99 µM (inactive)

SMILES: CC/N=C1/S/C(=C/c2cc(C)n(-c3ccc(Cl)cc3F)c2C)C(=O)N1CC
- EC50 [30]: 0.274 µM (active)
- EC50 [31]: 0.0367 µM (active)
- EC50 [32]: > 25 µM (inactive)
- EC50 [33]: > 25 µM (inactive)

Second part, led by results:

- AC50 [2]: 0.0155 µM (active)
SMILES: O=c1c(O[C@H]2O[C@@H](CO)[C@H](O)[C@@H](O)[C@@H]2O)c(-c2ccc(O)cc2)oc2cc(O)cc(O)c12

- Ki [6]: 3.98 µM (active)
- Ki [7]: 50.1 µM (active)
- Ki (Aurora kinase A): > 63.1 µM (inactive)
- Ki [9]: 50.1 µM (active)
- Ki (Activated CDC42 kinase 1): 25.1 µM (active)
- Ki [10]: > 100 µM (inactive)
- Ki [11]: 5.01 µM (active)
- Ki [12]: 31.6 µM (active)
- Ki (Focal adhesion kinase 1): 100 µM (active)
- Ki [13]: > 100 µM (inactive)
- Ki [14]: 3.98 µM (active)
- Ki [15]: 31.6 µM (active)
- Ki [16]: > 63.1 µM (inactive)
- Ki [17]: 39.8 µM (active)
- Ki [18]: 3.98 µM (active)
- Ki [19]: > 100 µM (inactive)
- Ki [20]: 63.1 µM (active)
SMILES: O=C1CN2C(=NN1)COc1ccccc12
- Ki [8]: 10 µM (active)

- Ki [21]: > 7.94 µM (inactive)
- Ki [22]: 2 µM (active)
- Ki [23]: 0.0316 µM (active)
- Ki [24]: > 3.16 µM (inactive)
- Ki [25]: > 10 µM (inactive)
- Ki [26]: > 10 µM (inactive)
- Ki [15]: 1.26 µM (active)
- Ki [17]: > 7.94 µM (inactive)
- Ki [18]: 5.01 µM (active)
- Ki [27]: 0.631 µM (active)
SMILES: O=C(O)c1ccccc1Nc1ccnc(NCc2cccc(O)c2)n1

- EC50 [34]: > 100 µM (inactive)
- EC50 [35]: > 100 µM (inactive)
SMILES: CC(CN1CCCC1)C(=O)O (configuration not stated)
